Measurements published in patent publication US9999603B2, “Compositions and methods including leelamine and arachidonyl trifluoromethyl ketone relating to treatment of cancer” (The Penn State Research Foundation, priority 2013, dated 2018).

Columns and labels:
Assay type in all cases: cell-based, human
1205 Lu melanoma cells = test: MTS cell viability assay, 1205 Lu melanoma cells; details: free drug in DMSO, 24 hours treatment, read-out: half-maximal inhibitory concentration (IC50), cell viability
Method: (§1) Human fibroblast FF2441 cells and metastatic melanoma cell lines UACC 903 and 1205 Lu were maintained in DMEM (Invitrogen), supplemented with 10% FBS (Hyclone). Cell lines were maintained in a 37° C. humidified 5% CO2 atmosphere incubator and periodically monitored for phenotypic and genotypic characteristics, and for tumorigenic potential.
(§2) Viability of fibroblast and melanoma cells (UACC 903 and 1205 Lu) following treatment with ATK, leelamine, nanolipoATK, and nanolipoATK-999 was measured by MTS assay (Promega, Madison, Wis.). Briefly, 5×10^3 melanoma or fibroblast (FF2441) cells were plated per well in 100 μL of media and grown in 96-well plates for 48 hours. Cells were then treated with ATK alone, leelamine alone, nanolipoATK, nanolipolee, or nanoleelATK-999 for 24 hours before measuring cell viability.
(§3) IC50 values were calculated using Prism 4.0 GraphPad Software. Calculsyn software was used to evaluate synergy.
(§4) The melanoma cell lines UACC 903 and 1205 Lu, and normal human fibroblast cells FF2441, were treated with 1 μM, 1.5 μM, 2 μM, 2.5 μM, 3 μM, 3.5 μM, 4 μM, 4.5 μM, or 5 μM leelamine in DMSO. […] IC50 values were calculated using GraphPad Prism software.
(§5) The melanoma cell lines UACC 903 and 1205 Lu were treated with 15 μM, 20 μM, 25 μM, 30 μM, 35 μM, 40 μM, 45 μM, 50 μM, or 55 μM ATK in DMSO. […] IC50 values were calculated using GraphPad Prism software.

[1] = test system: fibroblast cell line FF2441; test: MTS cell viability assay, normal fibroblasts FF2441; details: 1-5 μM leelamine in DMSO, 24 hours
Method: as §1, §2
The melanoma cell lines UACC 903 and 1205 Lu, and normal human fibroblast cells FF2441, were treated with 1 μM, 1.5 μM, 2 μM, 2.5 μM, 3 μM, 3.5 μM, 4 μM, 4.5 μM, or 5 μM leelamine in DMSO. Cells were maintained in DMEM supplemented with 10% FBS and L-glutamine. After 24 hours of treatment, an MTS assay was performed to determine the fractional cell viability relative to the DMSO control. IC50 values were calculated using GraphPad Prism software.

UACC 903 melanoma cells = test: MTS cell viability assay, UACC 903 melanoma cells; details: free drug in DMSO, 24 hours treatment, read-out: half-maximal inhibitory concentration (IC50), cell viability
Method: as §1, §2, §3, §4, §5

With CC(C)c1ccc2c(c1)CC[C@H]1[C@](C)(CN)CCC[C@]21C [leelamine, (1R,4aS,10aR)-1,2,3,4,4a,9,10,10a-octahydro-1-,4a-dimethyl-7-(1-methylethyl)-1-phenanthrenemethanamine] the IC50 (1205 Lu melanoma cells) was 3.8 µM, the “killing of normal fibroblast cells” value [1] was “did not kill” and the IC50 (UACC 903 melanoma cells) was 2.8 µM.
